1 compound from patent US20250270159A1, “1-(CYCLOBUTANEMETHYLIDENE)-2, 4, 5-TRIMETHOXYBENZENE COMPOUND AND PREPARATION METHOD AND USE THEREOF” (CHENGDU XINRUI TAIKANG TECHNOLOGY CO., LTD., priority 2023, published 2025) can be followed below.

Experiment [1] has as its system rat model of lithium-pilocarpine-induced epilepsy. Briefly: Survival of SE model rats after drug intervention in the acute phase. The class given is in vivo, Sprague Dawley (SD) rats. Conditions: 50 mg/kg ip; Logrank test P<0.05 vs model; FIG. 1. The protocol:
Methylscopolamine bromide, lithium chloride, and pilocarpine were weighed, and experimental drugs were dissolved to working concentrations (100 mg/mL of lithium chloride solution, 1 mg/mLof methylscopolamine bromide solution, and 20 mg/mL of pilocarpine solution) with 0.9% saline. Rats were injected intraperitoneally with lithium chloride (a dose of 127 mg/kg), and 18-20 h later, scopolamine methylbromide (a dose of 1 mg/kg) was injected intraperitoneally. […] Thereafter, an additional dose of 10 mg/kg pilocarpine was injected intraperitoneally every 30 min until the onset of a grade IV or higher status epilepticus (SE)-like seizure without significant intermittent intervals, with a maximum dose of 60 mg/kg.
The rats with successful modeling were randomly divided into three groups, namely a model group, a CTMB group, and a sodium valproate (VPA) group. Administration was carried out after 1 h of SE onset, with a blank emulsion given by intraperitoneal injection in the model group, a CTMB emulsion injection at a dose of 50 mg/kg given by intraperitoneal injection in the CTMB group, and sodium valproate at a dose of 300 mg/kg given by oral gavage in the VPA group. […]
The differences between the survival curves of the rats in each group were analyzed by a Logrank test.

Experiment [2] deals with Parkinson's disease (PD) mice, 6-OHDA method. Briefly: 6-OHDA Parkinson's disease mice, rod-climbing experiment. The class given is in vivo, C57 mice. The settings on record: Group D, CTMB 20 mg/kg ip. How it is done: The mice were randomly divided into a sham operation group (group S, given a blank emulsion with a volume equal to that of the administered group), a model group (group M, given a blank emulsion with a volume equal to that of the administered group), a CTMB group (20 mg/kg, group D), and a levodopa group (levodopa: benserazide hydrochloride=4:1, 12 mg/kg, group L), each group included 10-12 mice, and all of them were administered intraperitoneally.
Preoperatively, mice were fasted for 12 h, and mice were anesthetized with 4% isoflurane induction and maintained with 1.5% isoflurane. The mice were subsequently immobilized on a brain stereotaxic apparatus. The bregma and lambda points were exposed by gently wiping the cranial surface with a cotton swab after cutting the scalp. The stereotaxic apparatus was adjusted to align the heights of the bregma and lambda points, thereby leveling the skull. The bregma point was designated as the origin, the coordinates where the injection site was located were located, and the drill was used to drill a small hole in the skull above the injection site.
6-OHDA (12.5 μg/μL) was injected into the striatum region (AP+0.5 mm; ML+2.00 mm; DV-3.00 mm and-2.00 mm) of the mice, and 1 μL 6-OHDA was injected into each of the two points at a rate of 0.5 μL/min. The needle was left in place for 3 min after the injection was completed, and then the injection needle was lifted, and the scalp of the mice was sutured and disinfected. The sham operation group was injected with an equal volume of saline containing 0.02% ascorbic acid, and other operations were performed as above. After the procedure, the mice were placed in the cage at an appropriate temperature. After awakening from anesthesia, the mice were kept normally.
The rod-climbing experiment: the rod-climbing experiment was mainly used to test the limb movement ability of mice and to assess the symptoms of motor delay. This experiment evaluated the ability of mice to grasp and maneuver on a pole to descend to their home cage. A cork ball was fixed to an iron pole with a diameter of 1 cm and a length of 65 cm. The head of the mice was put down on the top of the pole, and the mice usually naturally descended down along the pole to return to their cage. The time for the mice to descend to the bottom was recorded. Results were averaged over 3 consecutive measurements.
The motor function of the mice was comprehensively assessed using the rod-climbing experiment and the hanging experiment at 1, 2, 3, and 4 weeks after drug administration.

In the case of `COc1cc(OC)c(OC)cc1C=C1CCC1` [CTMB, 1-(cyclobutylidenemethyl)-2,4,5-trimethoxybenzene], the “survival rate of the SE model rats” value in experiment [1] is on record as “significantly increases the survival rate”. For the same compound, in experiment [2], the “Rod-climbing time, 1 week of administration” value was 6.38 ± 1.22 s; the “Rod-climbing time, 2 weeks of administration” value came out at 6.41 ± 1.12 s; the “Rod-climbing time, 3 weeks of administration” value was 5.50 ± 1.02^#, * s; the “Rod-climbing time, 4 weeks of administration” value is on record as 5.28 ± 0.92^#, * s. Moreover, the “Rod-climbing time, Before administration” value in experiment [2] (baseline 2 weeks after 6-OHDA) stood at 9.29 ± 1.92 s.
